Each compound was assayed against T1, BaF3 BRAF-KIAA1549 fusion cells (Homo sapiens, UniProt P15056) (assay: BaF3 BRAF-KIAA1549 fusion cell proliferation assay (CellTiterGlo)). Conditions: 96 hours incubation, potency code.
T1 construct: The BRAF-KIAA1549 fusion mutant was subcloned into pMXs-IRES-Blasticidin (RTV-016, Cell Biolabs, San Diego, CA); fused on or other part: Q9HCM3 (UPF0606 protein KIAA1549)
Assay type: cell-based
Description: Retroviral Production: The BRAF-KIAA1549 fusion mutant was subcloned into pMXs-IRES-Blasticidin (RTV-016, Cell Biolabs, San Diego, CA). Retrovirus was produced by transfection of HEK 293T cells with the retroviral BRAF mutant expression vector pMXs-IRES-Blasticidin (RTV-016, Cell Biolabs), pCMV-Gag-Pol vector and pCMV-VSV-G-Envelope vector. Briefly, HEK 293T cells were plated in Poly-D-lysine coated 6-well plate (2.5×10^5 cells per well) and incubated overnight. The next day, retroviral plasmids (1 μg of BRAF-KIAA fusion mutant, 0.32 μg of pCMV-Gag-Pol and 0.165 μg pCMV-VSV-G) were mixed in 300 μL of Optimem (31985, Life Technologies). The mixture was incubated at room temperature for 5 minutes and then added to Optimem containing transfection reagent Lipofectamine (11668, Invitrogen) and incubated for 20 minutes. The mixture was then added dropwise to HEK 293T cells. The next day the medium was replaced with fresh culture medium and retrovirus was harvested at 24 hours.
Generation of BRAF-KIAA1549 fusion stable cell line: BaF3 cells were plated in V-bottom 96 well plate (COSTAR #3894) in 80 μL of RPMI/10% FBS and 0.01 ng/ml mouse IL-3; supplemented with 8 μg/mL polybrene (4×10^4 cells/well). Cells were transduced with 20 μL of BRAF-KIAA1549 fusion viral supernatant by centrifuging for 30 minutes at 1000 rpm. Cells were placed in a 37° C. incubator overnight. Next day 100 μL of RPMI/10% FBS and 0.01 ng/ml mouse IL-3 was added. After 24 hours, 100 μL of cells were transferred to a 24 well plate containing 900 μL of RPMI/10% FBS and 15 μg/mL Blasticidin. Contents of the 24 well plate were sampled for cell viability via CellTiterGlo (Promega) over a 2-week period.
Assay for cell proliferation: BaF3 BRAF-KIAA1549 fusion cells were resuspended at 1.5×10^5c/mL in RPMI containing 10% Heat Inactivated FBS, 1% L-glutamine and dispensed in duplicate ([…]) into 384 well plates. To determine the effect of compound on cell proliferation, BaF3 BRAF-KIAA1549 fusion cells were incubated for 96 hours in the presence of vehicle control (DMSO) or compound at varying concentrations. Inhibition of cell growth was determined by luminescent quantification (Envision by Perkin Elmer) of intracellular ATP content using CellTiterGlo (Promega), according to the protocol provided by the manufacturer. To determine the IC50 values, the vehicle-treated cells were normalized as viable cells and analyzed using the CDD Vault, Collaborative Drug Discovery, Burlingame, CA (the Levenberg-Marquardt algorithm; Levenberg, K., […]; Marquardt, D., 1963).
Tables A1 and A2 assign each compound a code for potency in the BaF3 BRAF-KIAA1549 fusion cell proliferation assay: A, B, C, or D. According to the code, A represents an IC50 value <20 nM; B represents an IC50 value ≥20 nM and <100 nM; C represents an IC50 value ≥100 nM and <500 nM; and D represents an IC50 value ≥500 nM.

T1 sequence (P15056 whole entry, change not shown, the tested form may be a part): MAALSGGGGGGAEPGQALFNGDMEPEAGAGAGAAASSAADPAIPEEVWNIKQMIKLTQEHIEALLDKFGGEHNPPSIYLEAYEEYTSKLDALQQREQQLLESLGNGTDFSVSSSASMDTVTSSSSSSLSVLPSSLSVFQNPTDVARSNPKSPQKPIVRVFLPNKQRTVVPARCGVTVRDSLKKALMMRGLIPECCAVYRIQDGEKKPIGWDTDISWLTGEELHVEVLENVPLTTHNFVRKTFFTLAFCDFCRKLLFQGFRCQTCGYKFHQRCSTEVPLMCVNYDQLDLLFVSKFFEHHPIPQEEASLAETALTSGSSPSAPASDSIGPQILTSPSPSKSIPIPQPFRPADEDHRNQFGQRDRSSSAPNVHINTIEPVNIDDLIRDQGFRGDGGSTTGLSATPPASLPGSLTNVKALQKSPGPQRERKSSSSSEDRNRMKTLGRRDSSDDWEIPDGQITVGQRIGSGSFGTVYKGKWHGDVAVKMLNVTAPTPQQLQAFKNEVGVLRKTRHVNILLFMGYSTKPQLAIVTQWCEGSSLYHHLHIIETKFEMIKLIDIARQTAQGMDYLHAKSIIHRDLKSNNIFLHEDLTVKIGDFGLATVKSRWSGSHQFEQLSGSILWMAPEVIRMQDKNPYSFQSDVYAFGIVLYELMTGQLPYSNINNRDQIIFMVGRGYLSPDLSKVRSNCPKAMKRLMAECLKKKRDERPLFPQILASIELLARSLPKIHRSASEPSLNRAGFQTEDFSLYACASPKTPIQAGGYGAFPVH

GI50 [µM] | Structure (SMILES)
< 0.02 | Cc1ccc(NC(=O)C[C@H]2CCC[C@@H](C(F)(F)F)C2)cc1Nc1ncccc1-c1ncnc2[nH]cnc12 (single isomer, unassigned) [IA-137]
< 0.02 | Cc1ccc(NC(=O)C[C@@H]2CCC[C@H](C(F)(F)F)C2)cc1Nc1ncccc1-c1ncnc2[nH]cnc12 (single isomer, unassigned) [IA-138]
< 0.02 | Cc1ccc(NC(=O)C[C@H]2CCC[C@H](C(F)(F)F)C2)cc1Nc1ncccc1-c1ncnc2[nH]cnc12 (single isomer, unassigned) [IA-139]
< 0.02 | Cc1ccc(NC(=O)C[C@@H]2CCC[C@@H](C(F)(F)F)C2)cc1Nc1ncccc1-c1ncnc2[nH]cnc12 (single isomer, unassigned) [IA-140]
0.1 to 0.5 | Cc1ccc(NC(=O)C[C@H]2CCN[C@@H](C(F)(F)F)C2)cc1Nc1ncccc1-c1ncnc2[nH]cnc12 (single isomer, unassigned) [IA-141]
0.1 to 0.5 | Cc1ccc(NC(=O)C[C@@H]2CCN[C@H](C(F)(F)F)C2)cc1Nc1ncccc1-c1ncnc2[nH]cnc12 (single isomer, unassigned) [IA-142]
0.1 to 0.5 | Cc1ccc(NC(=O)C[C@H]2CCN[C@H](C(F)(F)F)C2)cc1Nc1ncccc1-c1ncnc2[nH]cnc12 (single isomer, unassigned) [IA-143]
0.1 to 0.5 | Cc1ccc(NC(=O)C[C@@H]2CCN[C@@H](C(F)(F)F)C2)cc1Nc1ncccc1-c1ncnc2[nH]cnc12 (single isomer, unassigned) [IA-144]
0.02 to 0.1 | Cc1ccc(NC(=O)C[C@H]2CCO[C@@H](C(F)(F)F)C2)cc1Nc1ncccc1-c1ncnc2[nH]cnc12 (single isomer, unassigned) [IA-146]
0.02 to 0.1 | Cc1ccc(NC(=O)C[C@H]2CCO[C@H](C(F)(F)F)C2)cc1Nc1ncccc1-c1ncnc2[nH]cnc12 (single isomer, unassigned) [IA-147]
0.02 to 0.1 | Cc1ccc(NC(=O)C[C@@H]2CCO[C@@H](C(F)(F)F)C2)cc1Nc1ncccc1-c1ncnc2[nH]cnc12 (single isomer, unassigned) [IA-148]
0.02 to 0.1 | Cc1ccc(NC(=O)C[C@@H]2CCO[C@H](C(F)(F)F)C2)cc1Nc1ncccc1-c1ncnc2[nH]cnc12 (single isomer, unassigned) [IA-149]
< 0.02 | Cc1ccc(NC(=O)c2cc(C(F)(F)F)ccn2)cc1Nc1ncccc1-c1ncnc2[nH]cnc12 [Compound I-2, N-(3-(3-(9H-Purin-6-yl)pyridin-2-ylamino)-4-methylphenyl)-4-(trifluoromethyl)picolinamide]
< 0.02 | Cc1ccc(NC(=O)CC2CCC(F)(F)CC2)cc1Nc1ncccc1-c1ncnc2[nH]cnc12 [Compound I-14, N-(3-(3-(9H-purin-6-yl)pyridin-2-ylamino)-4-methylphenyl)-2-(4,4-difluorocyclohexyl)acetamide]
< 0.02 | Cc1ncc(NC(=O)c2cc(C(F)(F)F)ccn2)cc1Nc1ncccc1-c1ncnc2[nH]cnc12 [Compound I-16, N-(5-(3-(9H-purin-6-yl)pyridin-2-ylamino)-6-methylpyridin-3-yl)-4-(trifluoromethyl)picolinamide]
0.02 to 0.1 | Cc1ncc(NC(=O)c2ccnc(C(F)(F)F)c2)cc1Nc1ncccc1-c1ncnc2[nH]cnc12 [Compound I-17, N-(5-(3-(9H-purin-6-yl)pyridin-2-ylamino)-6-methylpyridin-3-yl)-2-(trifluoromethyl)isonicotinamide]

GI50 [µM] | Structure (SMILES)
0.02 to 0.1 | Cc1ncc(NC(=O)c2cncc(C(F)(F)F)c2)cc1Nc1ncccc1-c1ncnc2[nH]cnc12 [Compound I-18, N-(5-(3-(9H-purin-6-yl)pyridin-2-ylamino)-6-methylpyridin-3-yl)-5-(trifluoromethyl)nicotinamide]
< 0.02 | Cc1ccc(NC(=O)c2ccnc(C3CC3)c2)cc1Nc1ncccc1-c1ncnc2[nH]cnc12 [Compound I-19, N-(3-((3-(9H-purin-6-yl)pyridin-2-yl)amino)-4-methylphenyl)-2-cyclopropylisonicotinamide]
0.02 to 0.1 | O=C(Nc1ccc(F)c(Nc2ncccc2-c2ncnc3[nH]cnc23)c1)c1cc(C(F)(F)F)ccn1 [Compound I-20]
0.02 to 0.1 | O=C(Nc1ccc(Cl)c(Nc2ncccc2-c2ncnc3[nH]cnc23)c1)c1cc(C(F)(F)F)ccn1 [Compound I-21, N-(3-(3-(9H-purin-6-yl)pyridin-2-ylamino)-4-chlorophenyl)-4-(trifluoromethyl)picolinamide]
< 0.02 | Cc1ccc(NC(=O)c2ccc(Cl)c(C#N)c2)cc1Nc1ncccc1-c1ncnc2[nH]cnc12 [Compound I-22, N-(3-((3-(9H-purin-6-yl)pyridin-2-yl)amino)-4-methylphenyl)-4-chloro-3-cyanobenzamide]
0.1 to 0.5 | Cc1ccc(NC(=O)c2ccc(C#N)cc2)cc1Nc1ncccc1-c1ncnc2[nH]cnc12 [Compound I-26, N-(3-((3-(9H-purin-6-yl)pyridin-2-yl)amino)-4-methylphenyl)-4-cyanobenzamide]
0.02 to 0.1 | Cc1ccc(C(=O)Nc2ccc(C)c(Nc3ncccc3-c3ncnc4[nH]cnc34)c2)cc1 [Compound I-27, N-(3-((3-(9H-purin-6-yl)pyridin-2-yl)amino)-4-methylphenyl)-4-methylbenzamide]
≥ 0.5 | Cc1ccc(NC(=O)C23CC(Cl)(C2)C3)cc1Nc1ncccc1-c1ncnc2[nH]cnc12 [Compound I-28, N-(3-(3-(9H-purin-6-yl)pyridin-2-ylamino)-4-methylphenyl)-3-chlorobicyclo[1.1.1]pentane-1-carboxamide]
0.02 to 0.1 | Cc1c(F)cc(NC(=O)c2cc(C(F)(F)F)ccn2)cc1Nc1ncccc1-c1ncnc2[nH]cnc12 [Compound I-29, N-(3-(3-(9H-purin-6-yl)pyridin-2-ylamino)-5-fluoro-4-methylphenyl)-4-(trifluoromethyl)picolinamide]
< 0.02 | Cc1ccc(C(=O)Nc2cncc(C(F)(F)F)c2)cc1Nc1ncccc1-c1ncnc2[nH]cnc12 [Compound I-30, 3-((3-(9H-purin-6-yl)pyridin-2-yl)amino)-4-methyl-N-(5-(trifluoromethyl)pyridin-3-yl)benzamide]
< 0.02 | C#Cc1ccc(C(=O)Nc2ccc(C)c(Nc3ncccc3-c3ncnc4[nH]cnc34)c2)cc1 [Compound I-31, N-(3-((3-(9H-purin-6-yl)pyridin-2-yl)amino)-4-methylphenyl)-4-ethynylbenzamide]
< 0.02 | Cc1ccc(NC(=O)c2ccnc(C3COC3)c2)cc1Nc1ncccc1-c1ncnc2[nH]cnc12 [Compound I-32, N-(3-((3-(9H-purin-6-yl)pyridin-2-yl)amino)-4-methylphenyl)-2-(oxetan-3-yl)isonicotinamide]
0.02 to 0.1 | Cc1ccc(NC(=O)c2ccc(C(F)(F)F)c(Cl)c2)cc1Nc1ncccc1-c1ncnc2[nH]cnc12 [Compound I-33, N-(3-((3-(9H-purin-6-yl)pyridin-2-yl)amino)-4-methylphenyl)-3-chloro-4-(trifluoromethyl)benzamide]
0.02 to 0.1 | Cc1ccc(C(=O)Nc2cc(C(F)(F)F)ccn2)cc1Nc1ncccc1-c1ncnc2[nH]cnc12 [Compound I-34, 3-((3-(9H-purin-6-yl)pyridin-2-yl)amino)-4-methyl-N-(4-(trifluoromethyl)pyridin-2-yl)benzamide]
0.02 to 0.1 | Cc1ccc(C(=O)Nc2ccnc(C(F)(F)F)c2)cc1Nc1ncccc1-c1ncnc2[nH]cnc12 [Compound I-35, 3-((3-(9H-purin-6-yl)pyridin-2-yl)amino)-4-methyl-N-(2-(trifluoromethyl)pyridin-4-yl)benzamide]
< 0.02 | C#Cc1cc(C(=O)Nc2ccc(C)c(Nc3ncccc3-c3ncnc4[nH]cnc34)c2)ccc1Cl [Compound I-36, N-(3-((3-(9H-purin-6-yl)pyridin-2-yl)amino)-4-methylphenyl)-4-chloro-3-ethynylbenzamide]

— patent publication US20240317752A1, “6-SUBSTITUTED-9H-PURINE DERIVATIVES AND RELATED USES” (Black Diamond Therapeutics, Inc., priority 2021, published 2024)
